Reference: BindingDB's records for doi:10.1016/j.bmcl.2020.127004 (Merck, 2020)

What was measured:
[1] = Non-nucleoside inhibition of NS5B polymerase in HCV genotype 2a by Taqman probe based RT-PCR analysis
[2] = Non-nucleoside inhibition of NS5B polymerase in HCV genotype 1b by Taqman probe based RT-PCR analysis
[3] = Non-nucleoside inhibition of NS5B polymerase S365A mutant in HCV genotype 1a by Taqman probe based RT-PCR analysis
[4] = Non-nucleoside inhibition of NS5B polymerase in HCV genotype 4a by Taqman probe based RT-PCR analysis
[5] = Non-nucleoside inhibition of NS5B polymerase C316Y mutant in HCV genotype 1a by Taqman probe based RT-PCR analysis
[6] = Non-nucleoside inhibition of NS5B polymerase in HCV genotype 1a by Taqman probe based RT-PCR analysis
[7] = Non-nucleoside inhibition of NS5B polymerase in HCV genotype 3a by Taqman probe based RT-PCR analysis
[8] = Non-nucleoside inhibition of NS5B polymerase in HCV genotype 2b by Taqman probe based RT-PCR analysis

SMILES | EC50 [1] [nM] | EC50 [2] [nM] | EC50 [3] [nM] | EC50 [4] [nM] | EC50 [5] [nM] | EC50 [6] [nM] | EC50 [7] [nM] | EC50 [8] [nM]
CNC(=O)c1c(-c2ccc(F)cc2)oc2cc(N(C)S(C)(=O)=O)c(-c3ccc4nnn(C(C)c5ccc(F)cc5)c(=O)c4c3)cc12 (configuration not stated) | 9.3 | 2.9 | 277 | 1.1 | 15 | 2.8 | 0.8 | 5.8
CNC(=O)c1c(-c2ccc(F)cc2)oc2cc(N(C)S(C)(=O)=O)c(-c3ccc4nnn(C(CO)c5ccc(F)cc5)c(=O)c4c3)cc12 (configuration not stated) | 20 | 5.6 | 1130 | 4.5 | 523 | 7.3 | 0.9 | 6
CNC(=O)c1c(-c2ccc(F)cc2)oc2cc(N(C)S(C)(=O)=O)c(-c3ccc4nc(C)n(Cc5ccc(F)cn5)c(=O)c4c3)cc12 | 11 | 2.6 | 228 | 1.6 | 36 | 1.3 | 1.7 | 4.2
CNC(=O)c1c(-c2ccc(F)cc2)oc2cc(N(C)S(C)(=O)=O)c(-c3ccc4nc(C)n(Cc5ccc(F)cc5OC)c(=O)c4c3)cc12 | 13 | 1.5 | 177 | 2.2 | 44 | 1 | 1.1 | 5
CNC(=O)c1c(-c2ccc(F)cc2)oc2cc(N(C)S(C)(=O)=O)c(-c3ccc4nc(C)n(Cc5ccc(F)cc5F)c(=O)c4c3)cc12 | 8.3 | 0.8 | 11 | 0.7 | 5.4 | 0.5 | 0.9 | 5.4
CNC(=O)c1c(-c2ccc(F)cc2)oc2cc(N(C)S(C)(=O)=O)c(-c3ccc4nc(C)n([C@H](COC)c5ccc(F)cc5)c(=O)c4c3)cc12 | 19 | 1.1 | 37 | 2.4 | 21 | 0.6 | 1.6 | 11
CNC(=O)c1c(-c2ccc(F)cc2)oc2cc(N(C)S(C)(=O)=O)c(-c3ccc4nc(C)n([C@@H](COC)c5ccc(F)cc5)c(=O)c4c3)cc12 | 7.5 | 1.1 | 17 | 0.6 | 30 | 0.5 | 1.1 | 4.1
CNC(=O)c1c(-c2ccc(F)cc2)oc2cc(N(C)S(C)(=O)=O)c(-c3ccc4c(n3)C(=O)N(c3ccc(F)cc3)CO4)cc12 [US9364482, 2] | 151 | 3.8 | 1360 | 8.4 | 452 | 19 | 1.5 | 19
CNC(=O)c1c(-c2ccc(F)cc2)oc2cc(N(C)S(C)(=O)=O)c(-c3ccc4c(n3)C(=O)N(Cc3ccc(F)cc3)CO4)cc12 [US9364482, 6] | 4.6 | 1.3 | 0.7 | 0.3 | 3.5 | 1.6 | 1.8 | 19
CNC(=O)c1c(-c2ccc(F)cc2)oc2cc(N(C)S(C)(=O)=O)c(-c3ccc4nnn([C@H](COC)c5ccc(F)cc5)c(=O)c4c3)cc12 [US9364482, 39] | 12 | 2.6 | 68 | 0.7 | 18 | 1.2 | 1 | 3.9
CNC(=O)c1c(-c2ccc(F)cc2)oc2cc(N(C)S(C)(=O)=O)c(-c3ccc4nnn([C@@H](COC)c5ccc(F)cc5)c(=O)c4c3)cc12 [US9364482, 41] | 16 | 5.6 | 474 | 6 | 292 | 4.9 | 1.8 | 11
CNC(=O)c1c(-c2ccc(F)cc2)oc2cc(N(C)S(C)(=O)=O)c(-c3ccc4nnn(Cc5ccccc5)c(=O)c4c3)cc12 [US9364482, 42] | 8.8 | 3.5 | 335 | 3 | 68 | 2.3 | 1 | 6.2
CNC(=O)c1c(-c2ccc(F)cc2)oc2cc(N(C)S(C)(=O)=O)c(-c3ccc4nnn(Cc5ccc(F)cc5)c(=O)c4c3)cc12 [US9364482, 44] | 13 | 3.9 | 76 | 1.4 | 12 | 1.7 | 0.8 | 4
CNC(=O)c1c(-c2ccc(F)cc2)oc2cc(N(C)S(C)(=O)=O)c(-c3ccc4nnn(Cc5ccc(F)cn5)c(=O)c4c3)cc12 [US9364482, 48] | 11 | 2.7 | 446 | 2.1 | 29 | 3.3 | 1.1 | 5.6
CNC(=O)c1c(-c2ccc(F)cc2)oc2cc(N(C)S(C)(=O)=O)c(-c3ccc4ncn(Cc5ccccc5)c(=O)c4c3)cc12 [US9364482, 49] | 18 | 3.5 | 190 | 3.5 | 70 | 3.2 | 1.2 | 9.4
CNC(=O)c1c(-c2ccc(F)cc2)oc2cc(N(C)S(C)(=O)=O)c(-c3ccc4nc(COC)n(Cc5ccc(F)cc5)c(=O)c4c3)cc12 [US9364482, 53] | 8.2 | 2.4 | 19 | 0.9 | 4.1 | 2.1 | 0.8 | 3.7
CNC(=O)c1c(-c2ccc(F)cc2)oc2cc(N(C)S(C)(=O)=O)c(-c3ccc4nc(CNC(C)=O)n(Cc5ccc(F)cc5)c(=O)c4c3)cc12 [US9364482, 54] | 58 | 2.8 | 8.3 | 6.6 | 32 | 1.1 | 1.4 | 5.9
CNC(=O)c1c(-c2ccc(F)cc2)oc2cc(N(C)S(C)(=O)=O)c(-c3ccc4nc(C)n(Cc5ccc(F)cc5)c(=O)c4c3)cc12 [US9364482, 55] | 4.1 | 1.1 | 7.1 | 0.6 | 2.9 | 0.3 | 0.6 | 1.5
CNC(=O)c1c(-c2ccc(F)cc2)oc2cc(N(C)S(C)(=O)=O)c(-c3ccc4nc(C)n(Cc5ccc(F)cc5)c(=O)c4n3)cc12 [US9364482, 68] | 10 | 1.6 | 137 | 2.9 | 36 | 1.1 | 1 | 2.7
CNC(=O)c1c(-c2ccc(F)cc2)oc2cc(N(C)S(C)(=O)=O)c(-c3cc4c(=O)n(Cc5ccc(F)cc5)nnc4cc3F)cc12 [US9364482, 70] | 6.1 | 2.7 | 47 | 1.2 | 5.6 | 0.7 | 1.2 | 2.9
CNC(=O)c1c(-c2ccc(F)cc2)oc2cc(N(C)S(C)(=O)=O)c(-c3cc(OC)c4nnn(Cc5ccc(F)cc5)c(=O)c4c3)cc12 [US9364482, 71] | 3.9 | 1.6 | 12 | 0.4 | 4.6 | 0.8 | 0.7 | 3.1
CNC(=O)c1c(-c2ccc(F)cc2)oc2cc(N(C)S(C)(=O)=O)c(-c3cc4c(=O)n(Cc5ccc(F)cc5)nnc4cc3C)cc12 [US9364482, 72] | 6.6 | 4.4 | 16 | 1 | 6.2 | 2.3 | 1.1 | 4.7
CNC(=O)c1c(-c2ccc(F)cc2)oc2cc(N(C)S(C)(=O)=O)c(-c3cc4c(=O)n(Cc5ccc(F)cc5)nnc4cc3Cl)cc12 [US9364482, 73] | 15 | 5.5 | 42 | 1 | 12 | 3 | 1.5 | 8.8
CNC(=O)c1c(-c2ccc(F)cc2)oc2cc(N(C)S(C)(=O)=O)c(-c3cc(C)c4nnn(Cc5ccc(F)cc5)c(=O)c4c3)cc12 [US9364482, 74] | 6.1 | 3.3 | 120 | 0.8 | 29 | 1.8 | 1.4 | 6.8
